Data: ChEMBL document CHEMBL4507286 (2021)

Legend:
[1] = target: AP2-associated protein kinase 1 (Homo sapiens) (UniProt Q2M2I8)
[2] = tested on: Tyrosine-protein kinase ABL1 (Homo sapiens), P00519 [E255K]
[3] = tested on: Tyrosine-protein kinase ABL1 (Homo sapiens), P00519 [Q252H]
[4] = tested on: Tyrosine-protein kinase ABL1 (Homo sapiens), P00519 [T315I]
[5] = target: Tyrosine-protein kinase ABL2 (Homo sapiens) (UniProt P42684)
[6] = target: Activin receptor type-1B (Homo sapiens) (UniProt P36896)
[7] = target: Calcium/calmodulin-dependent protein kinase type II subunit delta (Homo sapiens) (UniProt Q13557)
[8] = target: Cyclin-dependent kinase 2 (Homo sapiens, UniProt P24941)
[9] = target: Cyclin-dependent kinase-like 1 (Homo sapiens) (UniProt Q00532)
[10] = target: Casein kinase I isoform alpha-like (Homo sapiens) (UniProt Q8N752)
Chain of Casein kinase I isoform alpha-like (Homo sapiens) (Q8N752 whole entry, canonical isoform): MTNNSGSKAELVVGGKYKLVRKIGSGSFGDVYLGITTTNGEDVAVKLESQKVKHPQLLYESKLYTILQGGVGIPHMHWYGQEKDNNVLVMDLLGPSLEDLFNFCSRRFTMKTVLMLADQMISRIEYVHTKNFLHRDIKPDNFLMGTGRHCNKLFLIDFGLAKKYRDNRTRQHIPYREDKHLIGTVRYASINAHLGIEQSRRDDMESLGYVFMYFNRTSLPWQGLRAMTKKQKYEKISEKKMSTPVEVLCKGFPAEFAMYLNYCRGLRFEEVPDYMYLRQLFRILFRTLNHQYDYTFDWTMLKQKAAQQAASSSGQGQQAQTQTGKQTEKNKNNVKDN

[11] = target: Casein kinase I isoform gamma-2 (Homo sapiens) (UniProt P78368)
[12] = tested on: Epidermal growth factor receptor (Homo sapiens), P00533 [UNDEFINED MUTATION]
[13] = target: Ephrin type-A receptor 2 (Homo sapiens) (UniProt P29317)
[14] = tested on: Receptor-type tyrosine-protein kinase FLT3 (Homo sapiens), P36888 [D835H]
[15] = tested on: Receptor-type tyrosine-protein kinase FLT3 (Homo sapiens), P36888 [D835Y]
[16] = tested on: Receptor-type tyrosine-protein kinase FLT3 (Homo sapiens), P36888 [UNDEFINED MUTATION]
[17] = tested on: Receptor-type tyrosine-protein kinase FLT3 (Homo sapiens), P36888 [R834Q]
[18] = target: Beta-adrenergic receptor kinase 1 (Homo sapiens) (UniProt P25098)
Chain of Beta-adrenergic receptor kinase 1 (Homo sapiens) (P25098 whole entry): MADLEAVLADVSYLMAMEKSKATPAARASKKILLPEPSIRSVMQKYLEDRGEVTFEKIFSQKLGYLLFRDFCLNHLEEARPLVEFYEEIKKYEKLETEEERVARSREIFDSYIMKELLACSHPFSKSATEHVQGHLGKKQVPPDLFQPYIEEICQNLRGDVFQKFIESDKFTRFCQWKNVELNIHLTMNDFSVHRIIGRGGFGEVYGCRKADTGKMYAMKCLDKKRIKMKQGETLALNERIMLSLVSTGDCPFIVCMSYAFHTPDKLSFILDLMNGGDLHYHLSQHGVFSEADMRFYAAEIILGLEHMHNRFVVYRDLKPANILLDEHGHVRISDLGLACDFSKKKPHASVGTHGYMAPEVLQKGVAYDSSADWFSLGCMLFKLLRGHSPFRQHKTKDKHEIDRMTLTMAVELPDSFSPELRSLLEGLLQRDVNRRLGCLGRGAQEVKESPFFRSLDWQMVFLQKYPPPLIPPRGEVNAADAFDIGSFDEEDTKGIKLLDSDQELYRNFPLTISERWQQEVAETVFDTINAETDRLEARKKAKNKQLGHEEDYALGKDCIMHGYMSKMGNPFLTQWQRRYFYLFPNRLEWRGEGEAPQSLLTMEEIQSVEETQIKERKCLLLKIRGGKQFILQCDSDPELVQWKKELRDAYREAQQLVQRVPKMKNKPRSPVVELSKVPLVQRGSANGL

[19] = target: Mitogen-activated protein kinase kinase kinase kinase 1 (Homo sapiens) (UniProt Q92918)
[20] = target: Interleukin-1 receptor-associated kinase 3 (Homo sapiens) (UniProt Q9Y616)
[21] = target: Tyrosine-protein kinase JAK1 (Homo sapiens) (UniProt P23458)
[22] = target: Serine/threonine-protein kinase 10 (Homo sapiens) (UniProt O94804)
Chain of Serine/threonine-protein kinase 10 (Homo sapiens) (O94804 whole entry, looked up): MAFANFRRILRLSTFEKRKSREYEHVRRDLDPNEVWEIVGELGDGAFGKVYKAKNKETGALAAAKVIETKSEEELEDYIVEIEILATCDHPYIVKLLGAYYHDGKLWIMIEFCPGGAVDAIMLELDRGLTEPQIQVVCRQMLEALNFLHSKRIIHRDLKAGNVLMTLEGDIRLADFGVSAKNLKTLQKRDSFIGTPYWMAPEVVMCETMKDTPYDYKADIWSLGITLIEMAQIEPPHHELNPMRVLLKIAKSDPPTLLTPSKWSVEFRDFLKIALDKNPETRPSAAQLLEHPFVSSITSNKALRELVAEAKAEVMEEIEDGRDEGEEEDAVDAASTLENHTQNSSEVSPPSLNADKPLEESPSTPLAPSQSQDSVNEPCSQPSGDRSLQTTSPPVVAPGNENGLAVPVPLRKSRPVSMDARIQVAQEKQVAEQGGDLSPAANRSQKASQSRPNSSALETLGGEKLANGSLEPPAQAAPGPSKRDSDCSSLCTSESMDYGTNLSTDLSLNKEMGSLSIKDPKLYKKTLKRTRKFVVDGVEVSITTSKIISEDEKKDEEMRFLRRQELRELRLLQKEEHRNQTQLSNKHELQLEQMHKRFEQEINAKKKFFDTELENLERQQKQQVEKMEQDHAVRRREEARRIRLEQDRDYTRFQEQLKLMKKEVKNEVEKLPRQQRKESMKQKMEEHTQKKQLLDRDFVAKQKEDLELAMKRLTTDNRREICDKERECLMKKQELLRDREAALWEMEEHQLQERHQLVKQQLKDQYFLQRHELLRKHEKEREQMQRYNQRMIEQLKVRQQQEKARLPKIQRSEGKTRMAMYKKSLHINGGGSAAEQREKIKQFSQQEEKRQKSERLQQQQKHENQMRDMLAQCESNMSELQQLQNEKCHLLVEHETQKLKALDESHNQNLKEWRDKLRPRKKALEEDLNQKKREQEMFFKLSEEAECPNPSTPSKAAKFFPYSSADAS

[23] = target: MAP/microtubule affinity-regulating kinase 3 (Homo sapiens) (UniProt P27448)
[24] = target: MAP/microtubule affinity-regulating kinase 4 (Homo sapiens) (UniProt Q96L34)
Chain of MAP/microtubule affinity-regulating kinase 4 (Homo sapiens) (Q96L34 whole entry): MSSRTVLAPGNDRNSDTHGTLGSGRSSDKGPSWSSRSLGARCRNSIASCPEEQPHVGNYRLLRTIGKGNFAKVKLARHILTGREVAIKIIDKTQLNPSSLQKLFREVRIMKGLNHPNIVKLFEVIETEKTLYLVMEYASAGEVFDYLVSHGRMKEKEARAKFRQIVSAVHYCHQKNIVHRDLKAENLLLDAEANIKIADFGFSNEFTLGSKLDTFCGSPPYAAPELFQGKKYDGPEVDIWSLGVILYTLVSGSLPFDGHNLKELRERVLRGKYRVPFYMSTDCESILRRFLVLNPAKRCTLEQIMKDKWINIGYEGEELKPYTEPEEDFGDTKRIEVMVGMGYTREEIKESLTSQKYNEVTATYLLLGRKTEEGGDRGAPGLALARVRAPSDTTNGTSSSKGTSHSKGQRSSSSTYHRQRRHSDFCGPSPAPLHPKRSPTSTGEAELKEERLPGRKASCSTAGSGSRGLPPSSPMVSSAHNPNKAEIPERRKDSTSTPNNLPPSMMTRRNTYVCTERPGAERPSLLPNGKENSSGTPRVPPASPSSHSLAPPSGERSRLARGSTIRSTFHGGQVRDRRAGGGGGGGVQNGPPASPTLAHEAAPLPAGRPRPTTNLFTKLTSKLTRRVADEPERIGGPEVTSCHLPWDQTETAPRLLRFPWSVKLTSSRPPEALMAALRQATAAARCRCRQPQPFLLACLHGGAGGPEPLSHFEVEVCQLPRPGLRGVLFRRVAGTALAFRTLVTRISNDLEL

[25] = target: Microtubule-associated serine/threonine-protein kinase 1 (Homo sapiens) (UniProt Q9Y2H9)
[26] = target: Serine/threonine-protein kinase 4 (Homo sapiens) (UniProt Q13043)
[27] = target: Myosin-IIIa (Homo sapiens) (UniProt Q8NEV4)
[28] = target: Mitogen-activated protein kinase 13 (Homo sapiens) (UniProt O15264)
Chain of Mitogen-activated protein kinase 13 (Homo sapiens) (O15264 whole entry, canonical isoform): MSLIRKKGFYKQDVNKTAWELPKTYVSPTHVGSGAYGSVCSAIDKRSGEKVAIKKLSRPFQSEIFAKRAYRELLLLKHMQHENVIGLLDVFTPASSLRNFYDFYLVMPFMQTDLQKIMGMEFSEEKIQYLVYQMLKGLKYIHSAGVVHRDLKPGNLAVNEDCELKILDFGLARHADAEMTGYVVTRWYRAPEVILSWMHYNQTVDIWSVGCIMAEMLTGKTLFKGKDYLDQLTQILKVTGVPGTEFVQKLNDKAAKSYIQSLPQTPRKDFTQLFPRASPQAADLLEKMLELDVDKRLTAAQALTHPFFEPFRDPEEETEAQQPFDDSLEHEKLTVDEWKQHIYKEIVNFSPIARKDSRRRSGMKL

[29] = target: Phosphorylase b kinase regulatory subunit alpha, liver isoform (Homo sapiens) (UniProt P46019)
[30] = target: Phosphatidylinositol 3-kinase C2 domain-containing subunit gamma (Homo sapiens) (UniProt O75747)
[31] = tested on: Phosphatidylinositol 4,5-bisphosphate 3-kinase catalytic subunit alpha isoform (Homo sapiens), P42336 [E545K]
[32] = target: Serine/threonine-protein kinase RIO3 (Homo sapiens) (UniProt O14730)
Chain of Serine/threonine-protein kinase RIO3 (Homo sapiens) (O14730 whole entry): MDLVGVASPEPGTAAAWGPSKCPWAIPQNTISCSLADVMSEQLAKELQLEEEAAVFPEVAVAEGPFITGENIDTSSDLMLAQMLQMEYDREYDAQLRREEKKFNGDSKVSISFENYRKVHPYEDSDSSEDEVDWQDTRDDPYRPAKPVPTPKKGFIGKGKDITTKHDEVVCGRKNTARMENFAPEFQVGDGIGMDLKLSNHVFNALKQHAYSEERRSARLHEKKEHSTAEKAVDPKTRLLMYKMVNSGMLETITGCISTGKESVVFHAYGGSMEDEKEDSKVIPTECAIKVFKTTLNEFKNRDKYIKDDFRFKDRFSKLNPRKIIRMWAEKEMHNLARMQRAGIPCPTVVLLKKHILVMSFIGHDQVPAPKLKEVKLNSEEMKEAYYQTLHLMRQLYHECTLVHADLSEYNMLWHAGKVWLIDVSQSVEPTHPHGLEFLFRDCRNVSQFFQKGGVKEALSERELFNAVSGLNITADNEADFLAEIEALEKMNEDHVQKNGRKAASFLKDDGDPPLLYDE

[33] = target: Serine/threonine-protein kinase Sgk3 (Homo sapiens) (UniProt Q96BR1)
[34] = target: Serine/threonine-protein kinase SIK2 (Homo sapiens) (UniProt Q9H0K1)
Chain of Serine/threonine-protein kinase SIK2 (Homo sapiens) (Q9H0K1 whole entry, looked up): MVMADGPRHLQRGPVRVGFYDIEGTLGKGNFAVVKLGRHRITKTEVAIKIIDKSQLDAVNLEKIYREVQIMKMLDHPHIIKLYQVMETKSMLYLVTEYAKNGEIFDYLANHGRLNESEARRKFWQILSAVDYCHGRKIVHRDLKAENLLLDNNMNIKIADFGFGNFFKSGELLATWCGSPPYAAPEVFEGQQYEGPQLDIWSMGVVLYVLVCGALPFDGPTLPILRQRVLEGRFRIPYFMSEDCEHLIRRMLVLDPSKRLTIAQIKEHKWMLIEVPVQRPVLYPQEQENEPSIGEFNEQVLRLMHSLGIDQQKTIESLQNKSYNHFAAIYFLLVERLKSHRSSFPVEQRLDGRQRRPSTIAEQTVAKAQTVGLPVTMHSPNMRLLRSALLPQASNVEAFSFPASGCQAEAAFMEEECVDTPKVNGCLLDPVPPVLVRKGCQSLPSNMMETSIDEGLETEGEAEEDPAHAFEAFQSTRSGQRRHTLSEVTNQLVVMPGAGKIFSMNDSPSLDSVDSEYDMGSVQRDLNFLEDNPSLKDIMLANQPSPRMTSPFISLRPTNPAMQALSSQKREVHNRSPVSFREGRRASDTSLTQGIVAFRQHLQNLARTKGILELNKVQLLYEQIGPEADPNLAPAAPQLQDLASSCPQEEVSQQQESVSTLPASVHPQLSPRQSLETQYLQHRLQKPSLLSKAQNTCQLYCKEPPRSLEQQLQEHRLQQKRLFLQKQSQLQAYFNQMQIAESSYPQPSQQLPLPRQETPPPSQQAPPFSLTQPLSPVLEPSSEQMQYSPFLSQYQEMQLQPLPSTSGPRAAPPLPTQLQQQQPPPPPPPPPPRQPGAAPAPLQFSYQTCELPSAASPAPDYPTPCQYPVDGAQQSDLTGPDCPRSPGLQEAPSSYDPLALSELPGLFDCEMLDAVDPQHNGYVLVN

[35] = target: SRSF protein kinase 1 (Homo sapiens) (UniProt Q96SB4)
[36] = target: Serine/threonine-protein kinase tousled-like 2 (Homo sapiens) (UniProt Q86UE8)
[37] = target: BDNF/NT-3 growth factors receptor (Homo sapiens) (UniProt Q16620)
[38] = target: Phosphatidylinositol 3-kinase catalytic subunit type 3 (Homo sapiens) (UniProt Q8NEB9)
[39] = target: Serine/threonine-protein kinase WNK4 (Homo sapiens) (UniProt Q96J92)
[40] = target: 5-hydroxytryptamine receptor 3A (Homo sapiens) (UniProt P46098); conditions: Compound concentration 10.0 uM
[41] = target: Sodium-dependent serotonin transporter (Homo sapiens) (UniProt P31645); conditions: Compound concentration 10.0 uM
[42] = target: Alpha-2C adrenergic receptor (Homo sapiens) (UniProt P18825); conditions: Compound concentration 10.0 uM
Chain of Alpha-2C adrenergic receptor (Homo sapiens) (P18825 whole entry): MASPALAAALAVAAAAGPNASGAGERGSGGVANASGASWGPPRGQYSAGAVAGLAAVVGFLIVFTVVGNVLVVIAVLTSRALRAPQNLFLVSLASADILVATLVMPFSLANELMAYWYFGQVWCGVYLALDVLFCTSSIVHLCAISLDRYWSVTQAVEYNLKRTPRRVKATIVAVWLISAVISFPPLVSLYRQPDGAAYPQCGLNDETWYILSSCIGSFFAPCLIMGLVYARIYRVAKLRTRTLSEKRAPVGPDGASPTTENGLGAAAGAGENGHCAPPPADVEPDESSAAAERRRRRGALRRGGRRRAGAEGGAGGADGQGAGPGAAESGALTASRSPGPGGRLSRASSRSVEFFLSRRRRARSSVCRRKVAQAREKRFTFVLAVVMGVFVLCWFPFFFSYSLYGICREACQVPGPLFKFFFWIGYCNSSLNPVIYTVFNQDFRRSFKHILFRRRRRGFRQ

[43] = target: Muscarinic acetylcholine receptor M2 (Homo sapiens) (UniProt P08172); conditions: Compound concentration 10.0 uM
[44] = target: Muscarinic acetylcholine receptor M4 (Homo sapiens) (UniProt P08173); conditions: Compound concentration 10.0 uM
[45] = target: Muscarinic acetylcholine receptor M5 (Homo sapiens) (UniProt P08912); conditions: Compound concentration 10.0 uM
[46] = Compound concentration 1000.0 nM
[47] = Compound concentration 100.0 nM

C[C@H](NC(=O)Nc1cc2[nH]ncc2c(CO)n1)c1ccccn1 [ERKi-NC]
residual activity [1, 46]: 100% | residual activity [2, 46]: 81.4% | residual activity [3, 46]: 42.7% | residual activity [4, 46]: 94.4% | residual activity [5, 46]: 100% | residual activity [6, 46]: 76.1% | residual activity [7, 46]: 81% | residual activity [8, 46]: 100% | residual activity [9, 46]: 78.8% | residual activity [10, 46]: 100% | residual activity [11, 46]: 100% | residual activity [12, 46]: 100% | residual activity [13, 46]: 100% | residual activity [14, 46]: 100% | residual activity [15, 46]: 96.8% | residual activity [16, 46]: 100% | residual activity [17, 46]: 94.5% | residual activity [18, 46]: 79.3% | residual activity [19, 46]: 93.8% | residual activity [20, 46]: 99.3% | residual activity [21, 46]: 100% | residual activity [22, 46]: 95.5% | residual activity [23, 46]: 89.6% | residual activity [24, 46]: 100% | residual activity [25, 46]: 100% | residual activity [26, 46]: 100% | residual activity [27, 46]: 100% | residual activity [28, 46]: 85% | residual activity [29, 46]: 100% | residual activity [30, 46]: 93.1% | residual activity [31, 46]: 74.9% | residual activity [32, 46]: 90.7% | residual activity [33, 46]: 93.6% | residual activity [34, 46]: 94% | residual activity [35, 46]: 100% | residual activity [36, 46]: 88.4% | residual activity [37, 46]: 68.5% | residual activity [38, 46]: 97% | residual activity [39, 46]: 100% | inhibition [40]: -0.282% | inhibition [41]: -0.787% | inhibition [42]: 11.5% | inhibition [43]: 14.2% | inhibition [44]: 18.7% | inhibition [45]: 7.22%

C[C@@H](NC(=O)Nc1cc2[nH]ncc2c(CO)n1)c1ccccc1 [ERKi]
residual activity [1, 47]: 52.5% | residual activity [2, 47]: 83.4% | residual activity [3, 47]: 88.4% | residual activity [4, 47]: 100% | residual activity [5, 47]: 83.9% | residual activity [6, 47]: 100% | residual activity [7, 47]: 77.7% | residual activity [8, 47]: 75.7% | residual activity [9, 47]: 81.1% | residual activity [10, 47]: 79.8% | residual activity [11, 47]: 100% | residual activity [12, 47]: 88.7% | residual activity [13, 47]: 100% | residual activity [14, 47]: 100% | residual activity [15, 47]: 86.2% | residual activity [16, 47]: 80.7% | residual activity [17, 47]: 56.8% | residual activity [18, 47]: 79.5% | residual activity [19, 47]: 96.9% | residual activity [20, 47]: 80% | residual activity [21, 47]: 91.2% | residual activity [22, 47]: 84.8% | residual activity [23, 47]: 100% | residual activity [24, 47]: 96% | residual activity [25, 47]: 93.9% | residual activity [26, 47]: 100% | residual activity [27, 47]: 100% | residual activity [28, 47]: 100% | residual activity [29, 47]: 78.8% | residual activity [30, 47]: 68.3% | residual activity [31, 47]: 80.5% | residual activity [32, 47]: 100% | residual activity [33, 47]: 83.2% | residual activity [34, 47]: 85.7% | residual activity [35, 47]: 85.5% | residual activity [36, 47]: 86.9% | residual activity [37, 47]: 63.6% | residual activity [38, 47]: 71.2% | residual activity [39, 47]: 100% | inhibition [40]: 4.36% | inhibition [41]: 2.86% | inhibition [42]: -8.07% | inhibition [43]: -3.22% | inhibition [44]: -0.569% | inhibition [45]: 35.8%
